Source: US11724995B2, “Decalin derivatives, a process for the preparation and pharmaceutical composition thereof” (Council of Scientific & Industrial Research, priority 2018, dated 2023)

tested on: Sickle cell red blood cells (SS RBCs); assay: Flow adhesion assay: sickle cell adhesion inhibition, RBCs perfused over TNF-α activated HUVEC monolayer; type: cell-based; details: Homo sapiens; Table 1; SS RBCs treated with test compound at 100 μM, hypoxic condition 2 h; adhesion to TNF-α activated HUVEC monolayer under pulsatile flow; read-out: Inhibition (percentage of inhibition of cell adhesion)
Description: In still yet another embodiment, the present disclosure provides Sickle cell adhesion inhibition using Sickle cell red blood cells (SS RBCs). Flow adhesion assay are performed with commercial microfluidic-well plate and microfluidic flow adhesion system. Microfluidic channels are coated by perfusion (1 dyne/cm^2, 5 min) and incubated (37° C., 1 h) with 100 ng/ml Fibronectin. Channels are then perfused with complete media to remove unbound Fibronectin. Then a uniform monolayer of HUVEC cells is formed by profusing micro channels with the cell suspension at a pressure of 3 dyne/cm^2 for 5 sec and kept for 12 hours incubation to form monolayer. The HUVEC monolayer is activated 25 ng/ml of TNF-α and incubated (37° C., 4 h). Meanwhile Sickle cell red blood cell (SS RBCs) are treated with test compound at 100 μM concentration and incubated in hypoxic condition ([…], 5% CO2, 2 h). Flow condition for adhesion assay was pulsatile (1.67 Hz) flow (0.3 dyne/cm^2). For adhesion inhibition assay SS RBCs are diluted (2:50) in PBS. SS RBCs are perfused over HUVEC monolayer and incubated for 1 h. Unbound cells in micro channels are removed by perfusing complete media. Adherent cells are enumerated. Table 1 depicts percentage of inhibition when the compounds are tested at 100 μM concentration.
Flow adhesion assay were performed with commercial microfluidic-well plate and microfluidic flow adhesion system, Bio flux 200. Microfluidic channels were coated by perfusion (1 dyne/cm^2, 5 min) and incubated (37° C., 1 h) with 100 ng/ml Fibronectin. Channels were then perfused with complete media to remove unbound Fibronectin. Then a uniform monolayer of HUVEC cells was formed by profusing micro channels with the cell suspension at a pressure of 3 dyne/cm^2 for 5 sec and kept for 12 hours incubation to form monolayer. The HUVEC monolayer was activated 25 ng/ml of TNF-α and incubated (37° C., 4 h). Meanwhile RBCs were treated with test compound at 100 μM concentration and incubated in hypoxic condition ([…], 5% CO2, 2 h). Flow condition for adhesion assay was pulsatile (1.67 Hz) flow (0.3 dyne/cm^2). For adhesion inhibition assay RBCs were diluted (2:50) in PBS. RBCs were perfused over HUVEC monolayer and incubated for 1 h. Unbound cells in micro channels were removed by perfusing complete media. Adherent cells were enumerated.

Row | Structure (SMILES) | inhibition at 100 µM [%]
1 | C[C@@H]1CC(=O)C=C2C=CCC[C@]21C [Compound 21, (4R,4aS)-4,4a-dimethyl-4,4a,5,6-tetrahydronaphthalen-2(3H)-one] | 78
2 | C[C@@H]1CC=CC2=CC(=O)CC[C@]21C [Compound 24, (4aS,5R)-4a,5-dimethyl-4,4a,5,6-tetrahydronaphthalen-2(3H)-one] | 67
3 | C[C@@H]1CC(=O)C=C2C[C@@H](O)[C@@H](O)C[C@]21C [Compound 28, (4R,4aS)-6,7-dihydroxy-4,4a-dimethyl-4,4a,5,6,7,8-hexahydronaphthalen-2(3H)-one] | 56
4 | C[C@@H]1CC(=O)C=C2C=CC(=O)C[C@]21C [Compound 29, (8R,8aS)-8,8a-dimethyl-1,7,8,8a-tetrahydronaphthalene-2,6-dione] | 70
5 | C[C@@H]1C(=O)C=CC2=CC(=O)CC[C@]21C [Compound 30, (1S,8aS)-1,8a-dimethyl-1,7,8,8a-tetrahydronaphthalene-2,6-dione] | 72
